According to publication PMC9436819 (JACC: Basic to Translational Science, 2022):
Entries after “also recorded” stand apart in the source; their conditions may differ. Like-named read-outs stand apart in the source and are kept apart here. Marks after values point to notes of the source that are not given here.

Tests used:
Type in all cases: in vivo, human
[1] = Plasma pharmacokinetics in the food-effect cohort; conditions: single 10 mg; for CL/F / Vd/F / half-life: arithmetic mean ± SD; for Vd/F: read-out: Vz/F; for half-life: read-out: t½ (converted); for AUC(0-inf) / Cmax / AUC: geometric mean (geometric CV%); for AUC: read-out: AUC24
Text: Participants were randomized in a 1:1 ratio to 1 of 2 sequences: fasted/fed or fed/fasted. […] For all study groups, blood samples for PK assessment were obtained predose, up to 12 times daily on day 1, and then at regular intervals throughout the study (see Supplemental Appendix for details). Standard noncompartmental methods were used to calculate PK parameters using Phoenix WinNonlin, version 7.0; actual sample collection times were used.

healthy adults [2] = assay: Treatment-emergent adverse events, multiple ascending dose (MAD) cohorts; conditions: n = 6
Experimental: (§1) The MAD cohorts also used a randomized, double-blind, placebo-controlled, sequential design. […] Safety was assessed by the incidence of adverse events (AEs) and by the incidence of reduced LVEF. Treatment-emergent AEs (TEAEs) were defined as AEs that began or increased after study drug administration. All AEs were coded using the Medical Dictionary for Regulatory Activities, version 21.1, and graded using the National Cancer Institute Common Terminology Criteria for AEs (version 4.03) 5-point severity scale.[18] Each AE was judged as either related or unrelated to the study drug by the treating investigator. Clinical laboratory tests were obtained at regular intervals in all cohorts.

healthy adults [3] = assay: Treatment-emergent adverse events, single ascending dose (SAD) cohorts
Experimental: as §1, with “SAD portion of the study” for “MAD cohorts also”, “sequential, escalating dose design, in which participants received single ascending oral doses of the study drug. Seven cohorts were dosed in sequence (Figure 1).” for “sequential design.”

[4] = human, plasma, oral, 10 mg, Fasted, n = 4
[5] = human, plasma, oral, 10 mg, Fasted, n = 10
[6] = human, plasma, oral, 10 mg, Fed, n = 7

CL/F ([1]; Fasted, n = 4): 2.8 ± 0.6 L/h | CL/F ([1]; Fed, n = 7): 3.1 ± 0.9 L/h | Vd/F [1, 4]: 346 ± 134 L | half-life [1, 4]: 84.4 ± 16.4 h | AUC(0-inf) [1, 4]: 3670 ng·h/mL | Cmax [1, 5]: 50.6 ng/mL | AUC [1, 5]: 601 ng·h/mL | Tmax ([1]; human, plasma, oral, 10 mg, Fasted, median (range), n = 10): 2.3 h | Cmax ([1]; human, plasma, oral, 10 mg, Fed (high-fat breakfast), n = 12): 65 ng/mL | Vd/F [1, 6]: 340 ± 100 L | half-life [1, 6]: 78 ± 8.1 h | AUC(0-inf) [1, 6]: 3410 ng·h/mL | AUC ([1]; human, plasma, oral, 10 mg, Fed, n = 12): 631 ng·h/mL | Increase of Cmax when taken with food ([1]; fed vs fasted): approximately 30%
SMILES: CCc1nc(-c2ccc3c(c2)CC[C@H]3NC(=O)c2cnn(C)c2)no1 [Aficamten]
Effect of food on the PK ([1]; fed vs fasted): not affected; also recorded: no significant effect; also recorded: no effect of food | Participants with any TEAE (healthy adults [2]; MAD 5 mg qd × 14 d): 1 (17) n (%) | TEAE: Chapped lips (healthy adults [2]; MAD 5 mg qd × 14 d): 1 (17) n (%) | TEAE: Cough (healthy adults [2]; MAD 5 mg qd × 14 d): 1 (17) n (%) | TEAE: Salivary hypersecretion (healthy adults [2]; MAD 5 mg qd × 14 d): 1 (17) n (%) | Participants with any TEAE (healthy adults [2]; MAD 10 mg qd × 14 d): 2 (33) n (%) | TEAE: Headache (healthy adults [2]; MAD 10 mg qd × 14 d): 1 (17) n (%) | TEAE: Upper respiratory tract infection (healthy adults [2]; MAD 10 mg qd × 14 d): 1 (17) n (%) | Participants with any TEAE (healthy adults [3]; SAD 1 mg, n = 6): 1 (17) n (%) | Participants with any TEAE (healthy adults [3]; SAD 10 mg, n = 6): 1 (17) n (%) | TEAE: Headache (healthy adults [3]; SAD 10 mg, n = 6): 1 (17) n (%) | Participants with any TEAE (healthy adults [3]; SAD 25 mg, n = 6): 5 (83) n (%) | TEAE: Abdominal tenderness (healthy adults [3]; SAD 25 mg, n = 6): 1 (17) n (%) | TEAE: Dyspepsia (healthy adults [3]; SAD 25 mg, n = 6): 1 (17) n (%) | TEAE: Flatulence (healthy adults [3]; SAD 25 mg, n = 6): 1 (17) n (%) | TEAE: Headache (healthy adults [3]; SAD 25 mg, n = 6): 2 (33) n (%) | TEAE: Nausea (healthy adults [3]; SAD 25 mg, n = 6): 2 (33) n (%) | TEAE: Upper abdominal pain (healthy adults [3]; SAD 25 mg, n = 6): 2 (33) n (%) | Participants with any TEAE (healthy adults [3]; SAD 40 mg, n = 6): 1 (17) n (%) | TEAE: Ejection fraction decreased (healthy adults [3]; SAD 40 mg, n = 6): 1 (17) n (%) | Participants with any TEAE (healthy adults [3]; SAD 50 mg, n = 11): 4 (36) n (%) | TEAE: Abdominal tenderness (healthy adults [3]; SAD 50 mg, n = 11): 1 (9) n (%) | TEAE: Dyspepsia (healthy adults [3]; SAD 50 mg, n = 11): 1 (9) n (%) | TEAE: Ejection fraction decreased (healthy adults [3]; SAD 50 mg, n = 11): 1 (9) n (%) | TEAE: Flatulence (healthy adults [3]; SAD 50 mg, n = 11): 1 (9) n (%) | TEAE: Headache (healthy adults [3]; SAD 50 mg, n = 11): 1 (9) n (%) | TEAE: Chest pain (healthy adults [3]; SAD 50 mg, n = 11, bubbling sensation to the left chest, consistent with a gastrointestinal rather than cardiac association): 1 (9) ^a n (%) | Participants with any TEAE (healthy adults [3]; SAD 75 mg, n = 1): 1 (100) n (%) | TEAE: Ejection fraction decreased (healthy adults [3]; SAD 75 mg, n = 1): 1 (100) n (%) | TEAE: Chest pain (healthy adults [3]; SAD 75 mg, n = 1, onset approximately 60 hours postdose): 1 (100) ^b n (%)
